We go through one compound from patent publication US12622915B2, “Methods of treating PDE IV-mediated diseases or conditions” (Vanda Pharmaceuticals Inc., priority 2020, dated 2026).

The target of one series is T1, Phosphodiesterase PDE9A2 (Homo sapiens, UniProt O76083).
T1 construct: host or cells: insect Sf9 cells
Put plainly: Phosphodiesterase PDE9A2 enzyme assay. The series is classed as biochemical. The settings on record: N=2, Example 3. The source says: (§1) Reference standards are run as an integral part of each assay to ensure the validity of the results obtained. Reference Compounds: • Phosphodiesterase PDE10A2 Papaverine • Phosphodiesterase PDE11A4 Dipyridamole • Phosphodiesterase PDE1A MMPX • Phosphodiesterase PDE2A EHNA • Phosphodiesterase PDE3A Cilostamide • Phosphodiesterase PDE4A1A Rolipram • Phosphodiesterase PDE4B1 Rolipram • Phosphodiesterase PDE5A Zaprinast • Phosphodiesterase PDE6 Zaprinast • Phosphodiesterase PDE7A IBMX • Phosphodiesterase PDE7B IBMX • Phosphodiesterase PDE8A1 Dipyridamole • Phosphodiesterase PDE9A2 Zaprinast
(§2) Phosphodiesterase PDE1A; Phosphodiesterase PDE5A; and Phosphodiesterase PDE9A2: • Source: Human recombinant insect Sf9 cells • Substrate: 0.10 μM […] • Vehicle: 1.00% DMSO • Significance Crit.: ≥50% of max stimulation or inhibition • Incubation Buffer: 10 mM Tris-HCl, pH 7.2, 10 mM MgCl2, 0.05% NaN3, 0.1% phosphate-free BSA • Quantitation Method: Quantitation of Fluorescein-GMP-IMAP • Pre-Incub. Time/Temp: 15 minutes @25° C. • Incubation Time/Temp: 30 minutes @25° C.
IC50 values are determined by a non-linear, least squares regression analysis using MathIQ™ (ID Business Solutions Ltd., UK). […] Where presented, the Hill coefficient (nH), defining the slope of the competitive binding curve, is calculated using MathIQ™. […]

Series [1] concerns the target T2, Phosphodiesterase PDE11A4 (Homo sapiens, UniProt Q9HCR9).
T2 construct: host or cells: insect Sf9 cells
Description: Phosphodiesterase PDE11A4 enzyme assay. The settings on record: N=2, Example 3. The series is classed as biochemical.
Text: as §1
as §2, with “PDE4A1A;” for “PDE1A;”, “PDE4B1; Phosphodiesterase PDE10A2; Phosphodiesterase PDE11A4; Phosphodiesterase PDE2A; Phosphodiesterase PDE3A; Phosphodiesterase PDE7A; Phosphodiesterase PDE7B;” for “PDE5A;”, “PDE8A1:” for “PDE9A2:”, “Fluorescein-AMP-IMAP” for “Fluorescein-GMP-IMAP”
(§3) IC50 values are determined by a non-linear, least squares regression analysis using MathIQ™ (ID Business Solutions Ltd., UK). […]

The target of the next series is T3, Phosphodiesterase PDE8A1 (Homo sapiens, UniProt O60658).
T3 construct: host or cells: insect Sf9 cells
T3 sequence (O60658 whole entry): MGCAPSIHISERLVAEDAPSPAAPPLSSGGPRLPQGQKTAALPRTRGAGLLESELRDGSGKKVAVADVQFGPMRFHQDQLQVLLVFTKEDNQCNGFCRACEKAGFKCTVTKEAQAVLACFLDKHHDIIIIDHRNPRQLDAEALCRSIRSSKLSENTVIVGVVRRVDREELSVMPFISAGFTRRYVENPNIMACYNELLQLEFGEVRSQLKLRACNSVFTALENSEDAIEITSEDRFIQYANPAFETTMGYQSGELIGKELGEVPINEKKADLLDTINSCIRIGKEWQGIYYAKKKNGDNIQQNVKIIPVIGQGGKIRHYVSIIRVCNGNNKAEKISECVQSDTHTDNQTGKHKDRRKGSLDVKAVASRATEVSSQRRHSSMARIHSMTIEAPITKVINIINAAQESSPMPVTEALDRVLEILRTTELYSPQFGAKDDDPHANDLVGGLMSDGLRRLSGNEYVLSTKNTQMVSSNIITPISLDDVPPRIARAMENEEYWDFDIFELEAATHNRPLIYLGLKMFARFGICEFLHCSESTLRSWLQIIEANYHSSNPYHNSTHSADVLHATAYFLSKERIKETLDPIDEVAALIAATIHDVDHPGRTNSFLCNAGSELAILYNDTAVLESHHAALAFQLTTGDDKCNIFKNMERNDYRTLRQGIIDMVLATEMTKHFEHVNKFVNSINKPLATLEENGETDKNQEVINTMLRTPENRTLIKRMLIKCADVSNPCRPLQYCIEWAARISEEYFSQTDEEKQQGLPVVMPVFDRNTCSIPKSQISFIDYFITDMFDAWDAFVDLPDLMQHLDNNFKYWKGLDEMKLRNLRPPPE
Description: Phosphodiesterase PDE8A1 enzyme assay. Format: biochemical. The settings on record: N=2, Example 3.
Text: as §1
as §2, with “PDE4A1A;” for “PDE1A;”, “PDE4B1; Phosphodiesterase PDE10A2; Phosphodiesterase PDE11A4; Phosphodiesterase PDE2A; Phosphodiesterase PDE3A; Phosphodiesterase PDE7A; Phosphodiesterase PDE7B;” for “PDE5A;”, “PDE8A1:” for “PDE9A2:”, “Fluorescein-AMP-IMAP” for “Fluorescein-GMP-IMAP”
as §3

Series [2] in a line: Preclinical genotoxicity studies (mutations, clastogenic effects). The settings on record: in vitro or in vivo.
A further series deals with T4, Phosphodiesterase PDE4D2 (Homo sapiens, UniProt Q08499).
T4 construct: host or cells: insect Sf9 cells
T4 sequence (Q08499 303-809 limits assumed): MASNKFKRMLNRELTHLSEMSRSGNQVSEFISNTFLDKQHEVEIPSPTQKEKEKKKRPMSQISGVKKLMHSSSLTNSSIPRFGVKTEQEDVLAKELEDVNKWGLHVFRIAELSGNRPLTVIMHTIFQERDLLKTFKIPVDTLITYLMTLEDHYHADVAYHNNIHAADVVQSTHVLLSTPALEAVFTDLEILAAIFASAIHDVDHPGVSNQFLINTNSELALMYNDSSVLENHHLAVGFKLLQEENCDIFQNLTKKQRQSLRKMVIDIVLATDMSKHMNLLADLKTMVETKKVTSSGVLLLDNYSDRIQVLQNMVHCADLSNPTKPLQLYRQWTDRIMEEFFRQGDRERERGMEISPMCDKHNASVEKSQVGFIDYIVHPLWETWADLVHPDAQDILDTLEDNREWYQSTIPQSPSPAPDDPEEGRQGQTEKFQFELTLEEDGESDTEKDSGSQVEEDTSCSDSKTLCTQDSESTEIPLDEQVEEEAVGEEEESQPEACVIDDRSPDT
Put plainly: Phosphodiesterase PDE4D2 enzyme assay. The series is classed as biochemical. Here is the method:
Roliprami is used as a reference standard.
PDE4 assays are performed using methods adapted from the literature. See Houslay MD (2005) The long and short of vascular smooth muscle phosphodiesterase-4 as a putative therapeutic target. Mol Pharmacol. 68(3):563-567; MacKenzie S J and Houslay M D (2000) Action of rolipram on specific PDE4 cAMP phosphodiesterase isoforms and on the phosphorylation of cAMP-response element-binding protein (CREB) and p38 mitogen-activated protein (MAP) kinase in U937 monocytic cells. Biochem J. 347(Pt 2): 571-578.
Phosphodiesterase PDE4D2: • Source: Human recombinant insect Sf9 cells • Substrate: 0.10 μM FAM-cAMP • Vehicle: 1.00% DMSO • Significance Crit.: ≥50% of max stimulation or inhibition • Incubation Buffer: 10 mM Tris-HCl, pH 7.2, 10 mM MgCl2, 0.05% NaN3, 0.1% phosphate-free BSA • Quantitation Method: Quantitation of Fluorescein-AMP-IMAP • Pre-Incub. Time/Temp: 15 minutes @25° C. • Incubation Time/Temp: 15 minutes @25° C.
IC50 values are determined by a non-linear, least squares regression analysis using MathIQ™ (ID Business Solutions Ltd., UK). Where inhibition constants (Ki) are presented, the Ki values are calculated using the equation of Cheng and Prusoff (Cheng, Y., Prusoff, W.H., Biochem. Pharmacol. 22:3099-3108, 1973) using the observed IC50 of the tested compound, the concentration of radioligand employed in the assay, and the historical values for the KD of the ligand (obtained experimentally at Eurofins Panlabs, Inc.). Where presented, the Hill coefficient (nH), defining the slope of the competitive binding curve, is calculated using MathIQ™. […] Where IC50, Ki, and/or nH data are presented without Standard Error of the Mean (SEM), data are insufficient to be quantitative, and the values presented (Ki, IC50, nH) are interpreted with caution.

pIC50: −log10 of the molar value.

T1 sequence (O76083 1-533 isoform O76083-2): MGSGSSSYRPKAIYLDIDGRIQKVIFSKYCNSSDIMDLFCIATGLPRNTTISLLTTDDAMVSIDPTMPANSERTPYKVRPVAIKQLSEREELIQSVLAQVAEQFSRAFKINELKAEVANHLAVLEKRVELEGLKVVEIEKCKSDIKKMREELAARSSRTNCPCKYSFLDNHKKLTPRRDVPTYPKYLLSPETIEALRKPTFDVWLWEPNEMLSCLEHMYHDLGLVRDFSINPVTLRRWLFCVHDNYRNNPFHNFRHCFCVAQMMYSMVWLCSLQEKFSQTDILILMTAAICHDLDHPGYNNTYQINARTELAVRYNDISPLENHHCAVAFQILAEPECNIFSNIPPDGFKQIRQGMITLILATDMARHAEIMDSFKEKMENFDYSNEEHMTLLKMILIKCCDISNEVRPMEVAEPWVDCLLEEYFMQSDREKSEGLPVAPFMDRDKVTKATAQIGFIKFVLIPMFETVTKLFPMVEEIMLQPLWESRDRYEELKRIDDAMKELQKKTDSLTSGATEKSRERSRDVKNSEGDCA
T2 sequence (Q9HCR9 whole entry): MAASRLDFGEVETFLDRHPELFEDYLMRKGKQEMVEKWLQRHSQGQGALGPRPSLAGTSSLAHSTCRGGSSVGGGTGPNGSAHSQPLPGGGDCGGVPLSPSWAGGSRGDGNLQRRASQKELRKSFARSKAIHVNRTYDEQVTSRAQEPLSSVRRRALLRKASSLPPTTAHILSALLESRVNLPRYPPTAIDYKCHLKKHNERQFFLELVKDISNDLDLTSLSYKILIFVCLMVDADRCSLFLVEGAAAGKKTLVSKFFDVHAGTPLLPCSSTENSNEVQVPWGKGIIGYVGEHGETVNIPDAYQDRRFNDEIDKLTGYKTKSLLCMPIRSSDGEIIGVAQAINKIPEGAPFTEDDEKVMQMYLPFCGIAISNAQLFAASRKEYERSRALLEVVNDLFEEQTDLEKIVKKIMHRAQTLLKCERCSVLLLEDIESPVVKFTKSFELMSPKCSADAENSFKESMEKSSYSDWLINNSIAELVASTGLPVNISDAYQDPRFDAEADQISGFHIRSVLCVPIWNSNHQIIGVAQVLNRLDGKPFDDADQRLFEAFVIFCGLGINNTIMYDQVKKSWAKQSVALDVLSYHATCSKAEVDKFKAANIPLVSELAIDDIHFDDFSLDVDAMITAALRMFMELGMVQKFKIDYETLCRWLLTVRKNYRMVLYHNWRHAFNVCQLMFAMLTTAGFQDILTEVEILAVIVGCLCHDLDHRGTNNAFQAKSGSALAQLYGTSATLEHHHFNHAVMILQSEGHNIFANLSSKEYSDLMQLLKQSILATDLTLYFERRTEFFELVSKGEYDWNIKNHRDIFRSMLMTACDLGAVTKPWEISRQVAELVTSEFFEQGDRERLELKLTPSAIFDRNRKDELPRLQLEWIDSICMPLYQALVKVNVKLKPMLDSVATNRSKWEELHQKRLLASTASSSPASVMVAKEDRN

In the case of `CNc1nc(Nc2ccccc2)nc(OCC(F)(F)C(F)F)n1` [compound of Formula (I), N^2-methyl-N^4-phenyl-6-(2,2,3,3-tetrafluoropropoxy)-1,3,5-triazine-2,4-diamine], the inhibition at 10 µM is -2% on Phosphodiesterase PDE9A2; 14% in series [1]; 0% against Phosphodiesterase PDE8A1; 99% at Phosphodiesterase PDE4D2 (10 μM (first line, r2), N=2, Example 5). Further, the “Mutations or biologically relevant clastogenic effects” value in series [2] is on record as “does not induce mutations or biologically relevant clastogenic effects”. The inhibition at 0.03 µM on Phosphodiesterase PDE4D2 (0.03 μM, N=2, Example 5) was determined as 70%. In addition, on Phosphodiesterase PDE4D2 (0.1 μM, N=2, Example 5), the inhibition at 0.1 µM was determined as 83%. Further, the inhibition at 0.3 µM against Phosphodiesterase PDE4D2 (0.3 μM, N=2, Example 5) was 91%. The inhibition at 1 µM against Phosphodiesterase PDE4D2 (1 μM, N=2, Example 5) stood at 96%. The inhibition at 3 µM against Phosphodiesterase PDE4D2 (3 μM, N=2, Example 5) is 97%. At Phosphodiesterase PDE4D2 (Example 5), this compound showed a pIC50 of 8.21.
